In patent publication US20250163104A1, “MACROCYCLIC IMMUNOMODULATORS” (priority 2021, published 2025):
*1 amine or outer side, *2 acyl side, *3 side chain or, on linkers, in order; H or OH if unused. Where a SMILES comes first, the peptide text is derived from it. Bridges are numbered along the chain shown (N, C = ends). [ ]: non-standard residue; d: D form. The star is where a group is joined. Bip(3'-COOH) = N[C@@H](Cc1ccc(-c2cccc(C(=O)O)c2)cc1)C(=O)O; Phe(4-COOH) = N[C@@H](Cc1ccc(C(=O)O)cc1)C(=O)O; X5 = O=C([C@H](Cc1ccc2ncccc2c1)N[*:1])[*:2]; Bip = N[C@@H](Cc1ccc(-c2ccccc2)cc1)C(=O)O; 1Nal = N[C@@H](Cc1cccc2ccccc12)C(=O)O; 2Pal = N[C@@H](Cc1ccccn1)C(=O)O; 3Pal = N[C@@H](Cc1cccnc1)C(=O)O; 2Thi = N[C@@H](Cc1cccs1)C(=O)O; Cha = N[C@@H](CC1CCCCC1)C(=O)O; Carboxymethyl = O=C(O)C*; Orn = NCCC[C@H](N)C(=O)O; Dab = NCC[C@H](N)C(=O)O; Dap = NC[C@H](N)C(=O)O

The molecules below were run against T1, human PD-1 / PD-L1-Ig binding on Jurkat cell line over-expressing human PD-1 (Jurkat-PD-1) (Homo sapiens, UniProt Q15116) (assay: Jurkat-PD-1 Cell Binding High-Content Screening Assay (CBA)). Conditions: Jurkat-PD-1 cells, PE-labeled PD-L1-Ig 20 nM final; read-out: Jurkat HPD1_PDL1 IC50.
T1 construct: expressed in transfected cells; host or cells: Jurkat
T1 sequence (Q15116 25-288): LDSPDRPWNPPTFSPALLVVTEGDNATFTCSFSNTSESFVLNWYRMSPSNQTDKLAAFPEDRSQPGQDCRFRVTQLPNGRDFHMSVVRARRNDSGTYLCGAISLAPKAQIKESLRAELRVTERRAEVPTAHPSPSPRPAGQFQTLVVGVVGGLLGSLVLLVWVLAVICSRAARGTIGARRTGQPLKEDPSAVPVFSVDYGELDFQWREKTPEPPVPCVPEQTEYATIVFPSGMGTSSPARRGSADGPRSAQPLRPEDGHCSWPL
Type: cell-based
Summary of the method: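 Binding of fluorescent PD-L1-Ig (phycoerythrin linked via the Ig tag, 20 nM final) to PD-1-overexpressing Jurkat cells was imaged after a 2 h, 37° C compound pretreatment and 1 hour ligand incubation.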

First: CC(C)C[C@H]1NC(=O)[C@H](CCCN)NC(=O)[C@H](CCC(=O)O)NC(=O)[C@H](Cc2ccc(-c3ccccc3)cc2)NC(=O)[C@H](C(C)C)NC(=O)[C@H](Cc2ccc3ncccc3c2)NC(=O)[C@H](CC(=O)O)NC(=O)[C@H](Cc2ccc(OCC(=O)O)cc2)NC(=O)[C@H](CN)NC(=O)CSC[C@@H](C(=O)N[C@@H](C)C(N)=O)NC(=O)[C@H]([C@@H](C)O)NC(=O)[C@H](C(C)C)NC(=O)[C@H](CC2CCCCC2)NC(=O)[C@H](CCN)NC1=O [Compound 2145] ({CH2CO}-[Dap]Y(Carboxymethyl)D[X5]V[Bip]E[Orn][dL][Dab][Cha]VTCA-NH2; thioether N-14)
Second: CC(C)C[C@H]1NC(=O)[C@H](CCCN)NC(=O)[C@H](CCC(=O)O)NC(=O)[C@H](Cc2ccc(-c3ccccc3)cc2)NC(=O)[C@H](C(C)C)NC(=O)[C@H](Cc2ccc(Cl)c(Cl)c2)NC(=O)[C@H](CC(=O)O)NC(=O)[C@H](Cc2ccc(OCC(=O)O)cc2)NC(=O)[C@H](CN)NC(=O)CSC[C@@H](C(=O)N[C@@H](C)C(N)=O)NC(=O)[C@H]([C@@H](C)O)NC(=O)[C@H](C(C)C)NC(=O)[C@H](CC2CCCCC2)NC(=O)[C@H](CCN)NC1=O [Compound 2152]
The IC50 of the first is 42-fold higher: 469 nM for the first, 11.1 nM for the second. The second is the more potent here.

CC(C)C[C@H]1NC(=O)[C@H](CCCN)NC(=O)[C@H](CCC(=O)O)NC(=O)[C@H](Cc2ccc(-c3ccccc3)cc2)NC(=O)[C@H](C(C)C)NC(=O)[C@H](Cc2cccc3ccccc23)NC(=O)[C@H](CC(=O)O)NC(=O)[C@H](Cc2ccc(OCC(=O)O)cc2)NC(=O)[C@H](CN)NC(=O)CSC[C@@H](C(=O)N[C@@H](C)C(N)=O)NC(=O)[C@H]([C@@H](C)O)NC(=O)[C@H](C(C)C)NC(=O)[C@H](CC2CCCCC2)NC(=O)[C@H](CCN)NC1=O [Compound 2146] ({CH2CO}-[Dap]Y(Carboxymethyl)D[1Nal]V[Bip]E[Orn][dL][Dab][Cha]VTCA-NH2; thioether N-14) and CC(C)C[C@H]1NC(=O)[C@H](CCCN)NC(=O)[C@H](CCC(=O)O)NC(=O)[C@H](Cc2ccc(-c3ccccc3)cc2)NC(=O)[C@H](C(C)C)NC(=O)[C@H](Cc2ccccc2F)NC(=O)[C@H](CC(=O)O)NC(=O)[C@H](Cc2ccc(OCC(=O)O)cc2)NC(=O)[C@H](CN)NC(=O)CSC[C@@H](C(=O)N[C@@H](C)C(N)=O)NC(=O)[C@H]([C@@H](C)O)NC(=O)[C@H](C(C)C)NC(=O)[C@H](CC2CCCCC2)NC(=O)[C@H](CCN)NC1=O [Compound 2150] are within 1.5-fold of each other in IC50: 10.6 nM for the first, 7.5 nM for the second.

CC(C)C[C@H]1NC(=O)[C@H](CCCN)NC(=O)[C@H](CCC(=O)O)NC(=O)[C@H](Cc2ccc(-c3ccccc3)cc2)NC(=O)[C@H](C(C)C)NC(=O)[C@H](Cc2ccc(F)cc2)NC(=O)[C@H](CC(=O)O)NC(=O)[C@H](Cc2ccc(OCC(=O)O)cc2)NC(=O)[C@H](CN)NC(=O)CSC[C@@H](C(=O)N[C@@H](C)C(N)=O)NC(=O)[C@H]([C@@H](C)O)NC(=O)[C@H](C(C)C)NC(=O)[C@H](CC2CCCCC2)NC(=O)[C@H](CCN)NC1=O [Compound 2147] and CC(C)C[C@H]1NC(=O)[C@H](CCCN)NC(=O)[C@H](CCC(=O)O)NC(=O)[C@H](Cc2ccc(-c3ccccc3)cc2)NC(=O)[C@H](C(C)C)NC(=O)[C@H](Cc2ccc(F)c(F)c2)NC(=O)[C@H](CC(=O)O)NC(=O)[C@H](Cc2ccc(OCC(=O)O)cc2)NC(=O)[C@H](CN)NC(=O)CSC[C@@H](C(=O)N[C@@H](C)C(N)=O)NC(=O)[C@H]([C@@H](C)O)NC(=O)[C@H](C(C)C)NC(=O)[C@H](CC2CCCCC2)NC(=O)[C@H](CCN)NC1=O [Compound 2148] are within 1.5-fold of each other in IC50: 12 nM for the first, 17.5 nM for the second.

First: CC(C)C[C@H]1NC(=O)[C@H](CCCN)NC(=O)[C@H](CCC(=O)O)NC(=O)[C@H](Cc2ccc(-c3ccccc3)cc2)NC(=O)[C@H](C(C)C)NC(=O)[C@H](Cc2cc(F)c(F)c(F)c2)NC(=O)[C@H](CC(=O)O)NC(=O)[C@H](Cc2ccc(OCC(=O)O)cc2)NC(=O)[C@H](CN)NC(=O)CSC[C@@H](C(=O)N[C@@H](C)C(N)=O)NC(=O)[C@H]([C@@H](C)O)NC(=O)[C@H](C(C)C)NC(=O)[C@H](CC2CCCCC2)NC(=O)[C@H](CCN)NC1=O [Compound 2149]
Second: CC(C)C[C@H]1NC(=O)[C@H](CCCN)NC(=O)[C@H](CCC(=O)O)NC(=O)[C@H](Cc2ccc(-c3ccccc3)cc2)NC(=O)[C@H](C(C)C)NC(=O)[C@H](Cc2cccnc2)NC(=O)[C@H](CC(=O)O)NC(=O)[C@H](Cc2ccc(OCC(=O)O)cc2)NC(=O)[C@H](CN)NC(=O)CSC[C@@H](C(=O)N[C@@H](C)C(N)=O)NC(=O)[C@H]([C@@H](C)O)NC(=O)[C@H](C(C)C)NC(=O)[C@H](CC2CCCCC2)NC(=O)[C@H](CCN)NC1=O [Compound 2156] ({CH2CO}-[Dap]Y(Carboxymethyl)D[3Pal]V[Bip]E[Orn][dL][Dab][Cha]VTCA-NH2; thioether N-14)
The IC50 of the first is 7.8-fold lower: 41.3 nM for the first, 322 nM for the second.

Going from Cc1ccccc1C[C@@H]1NC(=O)[C@H](CC(=O)O)NC(=O)[C@H](Cc2ccc(OCC(=O)O)cc2)NC(=O)[C@H](CN)NC(=O)CSC[C@@H](C(=O)N[C@@H](C)C(N)=O)NC(=O)[C@H]([C@@H](C)O)NC(=O)[C@H](C(C)C)NC(=O)[C@H](CC2CCCCC2)NC(=O)[C@H](CCN)NC(=O)[C@@H](CC(C)C)NC(=O)[C@H](CCCN)NC(=O)[C@H](CCC(=O)O)NC(=O)[C@H](Cc2ccc(-c3ccccc3)cc2)NC(=O)[C@H](C(C)C)NC1=O [Compound 2151] to CC(C)C[C@H]1NC(=O)[C@H](CCCN)NC(=O)[C@H](CCC(=O)O)NC(=O)[C@H](Cc2ccc(-c3ccccc3)cc2)NC(=O)[C@H](C(C)C)NC(=O)[C@H](Cc2ccccn2)NC(=O)[C@H](CC(=O)O)NC(=O)[C@H](Cc2ccc(OCC(=O)O)cc2)NC(=O)[C@H](CN)NC(=O)CSC[C@@H](C(=O)N[C@@H](C)C(N)=O)NC(=O)[C@H]([C@@H](C)O)NC(=O)[C@H](C(C)C)NC(=O)[C@H](CC2CCCCC2)NC(=O)[C@H](CCN)NC1=O [Compound 2154] ({CH2CO}-[Dap]Y(Carboxymethyl)D[2Pal]V[Bip]E[Orn][dL][Dab][Cha]VTCA-NH2; thioether N-14), the IC50 rises from 12.1 nM to 27.9 nM (2.3-fold). The first is the more potent here.

Compared with CC(C)C[C@H]1NC(=O)[C@H](CCCN)NC(=O)[C@H](CCC(=O)O)NC(=O)[C@H](Cc2ccc(-c3ccccc3)cc2)NC(=O)[C@H](C(C)C)NC(=O)[C@H](Cc2cccs2)NC(=O)[C@H](CC(=O)O)NC(=O)[C@H](Cc2ccc(OCC(=O)O)cc2)NC(=O)[C@H](CN)NC(=O)CSC[C@@H](C(=O)N[C@@H](C)C(N)=O)NC(=O)[C@H]([C@@H](C)O)NC(=O)[C@H](C(C)C)NC(=O)[C@H](CC2CCCCC2)NC(=O)[C@H](CCN)NC1=O [Compound 2153] ({CH2CO}-[Dap]Y(Carboxymethyl)D[2Thi]V[Bip]E[Orn][dL][Dab][Cha]VTCA-NH2; thioether N-14), CC(C)C[C@H]1NC(=O)[C@H](CCCN)NC(=O)[C@H](CCC(=O)O)NC(=O)[C@H](Cc2ccc(-c3ccccc3)cc2)NC(=O)[C@H](C(C)C)NC(=O)[C@H](CCc2ccccc2)NC(=O)[C@H](CC(=O)O)NC(=O)[C@H](Cc2ccc(OCC(=O)O)cc2)NC(=O)[C@H](CN)NC(=O)CSC[C@@H](C(=O)N[C@@H](C)C(N)=O)NC(=O)[C@H]([C@@H](C)O)NC(=O)[C@H](C(C)C)NC(=O)[C@H](CC2CCCCC2)NC(=O)[C@H](CCN)NC1=O [Compound 2155] is 4.9-fold higher in IC50: 10.1 nM for the first, 49.3 nM for the second.

CC(C)C[C@H]1NC(=O)[C@H](CCCN)NC(=O)[C@H](CCC(=O)O)NC(=O)[C@H](Cc2ccc(-c3ccccc3)cc2)NC(=O)[C@H](C(C)C)NC(=O)[C@H](Cc2c[nH]c3ccccc23)NC(=O)[C@H](CC(=O)O)NC(=O)[C@H](Cc2ccc(C(=O)O)cc2)NC(=O)[C@H](CC(N)=O)NC(=O)CSC[C@@H](C(=O)N[C@@H](C)C(N)=O)NC(=O)[C@H]([C@@H](C)O)NC(=O)[C@H](C(C)C)NC(=O)[C@H](CC2CCCCC2)NC(=O)[C@H](CCN)NC1=O [Compound 2157] ({CH2CO}-N[Phe(4-COOH)]DWV[Bip]E[Orn][dL][Dab][Cha]VTCA-NH2; thioether N-14) and CC(C)C[C@H]1NC(=O)[C@H](CCCN)NC(=O)[C@H](CCC(=O)O)NC(=O)[C@H](Cc2ccc(-c3ccccc3)cc2)NC(=O)[C@H](C(C)C)NC(=O)[C@H](Cc2c[nH]c3ccccc23)NC(=O)[C@H](CC(=O)O)NC(=O)[C@H](Cc2ccc(C(=O)O)cc2)NC(=O)[C@H](CN)NC(=O)CSC[C@@H](C(=O)N[C@@H](C)C(N)=O)NC(=O)[C@H]([C@@H](C)O)NC(=O)[C@H](C(C)C)NC(=O)[C@H](CC2CCCCC2)NC(=O)[C@H](CCN)NC1=O [Compound 2159] are within 1.5-fold of each other in IC50: 8.1 nM for the first, 10.4 nM for the second.

Going from CC(C)C[C@H]1NC(=O)[C@H](CCCN)NC(=O)[C@H](CCC(=O)O)NC(=O)[C@H](Cc2ccc(-c3ccccc3)cc2)NC(=O)[C@H](C(C)C)NC(=O)[C@H](Cc2c[nH]c3ccccc23)NC(=O)[C@H](CC(=O)O)NC(=O)[C@H](Cc2ccc(C(=O)O)cc2)NC(=O)[C@H](Cc2ccccc2)NC(=O)CSC[C@@H](C(=O)N[C@@H](C)C(N)=O)NC(=O)[C@H]([C@@H](C)O)NC(=O)[C@H](C(C)C)NC(=O)[C@H](CC2CCCCC2)NC(=O)[C@H](CCN)NC1=O [Compound 2158] ({CH2CO}-F[Phe(4-COOH)]DWV[Bip]E[Orn][dL][Dab][Cha]VTCA-NH2; thioether N-14) to CC(C)C[C@H]1NC(=O)[C@H](CCCN)NC(=O)[C@H](CCC(=O)O)NC(=O)[C@H](Cc2ccc(-c3ccccc3)cc2)NC(=O)[C@H](C(C)C)NC(=O)[C@H](Cc2c[nH]c3ccccc23)NC(=O)[C@H](CC(=O)O)NC(=O)[C@H](Cc2ccc(-c3cccc(C(=O)O)c3)cc2)NC(=O)[C@H](CC(N)=O)NC(=O)CSC[C@@H](C(=O)N[C@@H](C)C(N)=O)NC(=O)[C@H]([C@@H](C)O)NC(=O)[C@H](C(C)C)NC(=O)[C@H](CC2CCCCC2)NC(=O)[C@H](CCN)NC1=O [Compound 2160] ({CH2CO}-N[Bip(3'-COOH)]DWV[Bip]E[Orn][dL][Dab][Cha]VTCA-NH2; thioether N-14), the IC50 rises from 7.7 nM to 14.3 nM (1.9-fold).
